# Measurements from patent publication US7900639B2, “Reconstituted tobaccos containing additive materials” (R. J. Reynolds Tobacco Company, priority 2003, dated 2011).
# Columns and labels:
# [1] = room temperature
# Experimental: The tobacco blend is extracted batch wise at about 130° F. using about 10 to about 15 parts tap water for each part tobacco material. Aqueous tobacco extract is separated from the water insoluble pulp using a centrifuge. The aqueous extract so provided has a soluble solids content of about 5%. The resulting extract is concentrated to a soluble solids content of about 22% to about 28% using a wiped film evaporator. The prepared extract is divided into two portions. To one portion, d-, l-alpha tocopherol is contacted with the resulting mixture (the test extract). […] In the other portion, no d-, l-alpha tocopherol is added, and as such a control extract is provided.
# The concentrated liquid tobacco extracts with and without added d-, l-alpha tocopherol mixture are vigorously mixed or homogenized and allowed to set at room temperature conditions for five days.
# bacteria = experiment: Extracts tested for bacterial growth; conditions: test extract versus control extract without additive
compound,measurement,setting,value
"Cc1c(C)c2c(c(C)c1O)CCC(C)(CCCC(C)CCCC(C)CCCC(C)C)O2 (stereo not drawn) [d-, l-alpha tocopherol]",condition of aqueous tobacco extract containing the additive on storage,"[1]; approximately 4% d-, l-alpha tocopherol on dried solids, five days, control began to ferment within two days",remained unchanged
same,separation of the additive in the tobacco extract,"[1]; emulsified in test extract, five day test period",no separation
same,bacteria activity in the extract,bacteria,significantly reduce
